Assay results as given in US7670613B2, “Androgen modulators” (Pfizer Inc., priority 2004, dated 2010).

Legend:
male Syrian hamsters = test: Animal model for inhibition of sebum production (hamster ear); type: in vivo, Syrian hamster; settings: topical 3.0 w/v %; for % CE reduction: cholesterol ester vs vehicle control; for % CE reduction / % WE reduction: twice daily, five days a week, 4 weeks, right ear; for Sum of WE & CE: sum of % WE and % CE reduction; for % WE reduction: wax ester vs vehicle control
Procedure: Animal Model for Inhibition of Sebum Production
Luderschmidt et al describes an animal model for testing whether compounds are capable of modulating sebum secretion. Arch. Derm. Res. 258, 185-191 (1977). This model uses male Syrian hamsters, whose ears contain sebaceous glands. The product of Example 14 was screened in this model.
Testing for sebum inhibition was carried out in the following manner. Male Syrian hamsters aged 9 to 10 weeks were introduced into the laboratory environment and acclimated for 2 weeks prior to use in the study. Each group consisted of 5 animals and run in parallel with vehicle and positive controls. Prior to administration, a sufficient quantity each compound was dissolved in 1 mL of a solvent consisting of ethanol, and propylene glycol (70/30% v/v) to achieve a final concentration of 3.0 w/v %.
Animals were dosed topically twice daily, five days a week, for 4 weeks. Each dose consisted of 25 micro liters of vehicle control or drug. The dose was applied to the ventral surfaces of both the right and left ears. All animals were sacrificed approximately 18-24 hours after the final dose. The right ears were collected from each animal and used for sebum analysis.
The ears were prepped for HPLC analysis in the following manner. One 8 mm distal biopsy punch was taken, just above the anatomical “V” mark in the ear to normalize the sample area. The punch was pulled apart. The ventral biopsy surface (the area where the topical dose was directly applied to the sebaceous glands) was retained for testing and the dorsal surface of the biopsy punch was discarded.
Tissue samples were blown with N2 gas and stored at −80° C. under nitrogen until HPLC analysis. In addition to ear samples, an aliquot of each drug and vehicle (at least 250 ul) was also stored at −80° C. for inclusion in the HPLC analysis.
HPLC analysis was carried out on an extract of the tissue sample. Tissue samples were contacted with 3 ml of solvent (a 4:1 admixture of 2,2,4-trimethylpentane and isopropyl alcohol). The mixture was shaken for 15 minutes and stored overnight at room temperature, protected from light. The next morning 1 milliliter of water was added to the sample and shaken for 15 minutes. The sample was then centrifuged at approximately 1500 rpm for 15 minutes. Two ml of the organic phase (top layer) was transferred to a glass vial, dried at 37° C., under nitrogen, for approximately 1 hour, and then lyophilized for approximately 48 hours. The samples were then removed from the lyophilizer and each vial was reconstituted with 600 μl of solvent A (trimethylpentane/tetrahydrofuran (99:1). The samples were then recapped and vortexed for 5 minutes.
200 μl of each sample was then transferred to a pre-labeled 200 μl HPLC vial with 200 μL glass inserts. The HPLC vials were placed in the autosampler tray for the Agilent 1100 series HPLC unit. The Agilent 1100 HPLC system consisted of a thermostated autosampler, a quarternary pump, a column heater, and an A/D interface module. All components were controlled by Agilent ChemStation software. A Waters Spherisorb S3W 4.6×100 mm analytical column was maintained at 30° C. by the Agilent column heater unit. The HPLC autosampler was programmed to maintain the sample temperature at 20 C. throughout the run.
10 uL of each sample was injected in triplicate into the column. Two solvents were used for the solvent gradient. Solvent A was an admixture of trimethylpentane and tetrahydrofuran (99:1). Solvent B was ethylacetate. The gradient utilized is described in the table below: […]
The Sedex 75 Evaporative Light Scattering Detector (ELSD) was operated at 45° C. with a gain of 5, and N2 pressure maintained at 3.1 bar. Analog signal obtained by the instrument was sent to the Agilent A/D interface module where it was converted to a digital output. The conversion was based on a 10000 mAU/volt set point and the data rate was set at 10 Hz (0.03 min). […]

hAR = biological target: T1, hAR (Homo sapiens, UniProt P10275); test: Competitive binding analysis on baculovirus/Sf9 generated hAR extracts with 3H-DHT tracer; settings: AR Binding IC50, hAR extract, 1 nM 3H-DHT, one hour at 4° C.; mean of multiple tests
T1 construct: made in house; host or cells: baculovirus/Sf9 insect cells
T1 sequence (P10275 1-920): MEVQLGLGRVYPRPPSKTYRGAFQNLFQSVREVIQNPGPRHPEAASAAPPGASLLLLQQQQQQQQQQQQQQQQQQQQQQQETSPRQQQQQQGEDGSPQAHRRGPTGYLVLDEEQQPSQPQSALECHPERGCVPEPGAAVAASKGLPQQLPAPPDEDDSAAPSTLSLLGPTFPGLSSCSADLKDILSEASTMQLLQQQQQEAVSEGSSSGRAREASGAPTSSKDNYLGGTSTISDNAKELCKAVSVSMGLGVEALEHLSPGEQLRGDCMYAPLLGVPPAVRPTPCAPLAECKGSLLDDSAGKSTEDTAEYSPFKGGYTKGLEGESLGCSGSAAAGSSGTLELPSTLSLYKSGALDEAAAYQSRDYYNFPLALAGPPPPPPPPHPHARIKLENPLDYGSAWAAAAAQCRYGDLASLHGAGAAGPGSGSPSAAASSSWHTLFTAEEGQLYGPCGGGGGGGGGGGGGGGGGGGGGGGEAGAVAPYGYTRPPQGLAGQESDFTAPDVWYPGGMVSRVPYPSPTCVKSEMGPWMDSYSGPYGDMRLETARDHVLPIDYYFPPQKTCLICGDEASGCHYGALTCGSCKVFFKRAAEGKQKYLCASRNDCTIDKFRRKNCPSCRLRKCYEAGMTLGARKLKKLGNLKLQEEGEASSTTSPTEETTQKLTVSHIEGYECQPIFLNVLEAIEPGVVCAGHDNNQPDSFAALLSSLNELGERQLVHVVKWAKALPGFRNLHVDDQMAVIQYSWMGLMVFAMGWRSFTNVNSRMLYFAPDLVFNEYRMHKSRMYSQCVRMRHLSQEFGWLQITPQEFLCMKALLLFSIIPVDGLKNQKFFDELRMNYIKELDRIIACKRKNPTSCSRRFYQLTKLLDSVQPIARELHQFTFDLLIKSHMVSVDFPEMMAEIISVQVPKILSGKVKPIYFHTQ

## N#Cc1ccc(O[C@@H]2CCCC[C@H]2C#N)cc1C(F)(F)F (single isomer, unassigned) [Example 72, (trans)-(−)-4-(2-Cyano-cyclohexyloxy)-2-trifluoromethyl-benzonitrile]
Male Syrian hamsters
  % CE reduction: 68%
  Sum of WE & CE: 153
  % WE reduction: 85%
hAR
  IC50: 43 nM

## N#Cc1ccc(O[C@@H]2CCCCC2C#N)cc1C(F)(F)F (stereo in doubt) [Example 14, -4-(2-Cyano-cyclohexyloxy)-2-trifluoromethyl-benzonitrile]
Male Syrian hamsters
  % CE reduction: 84%
  Sum of WE & CE: 179
  % WE reduction: 95%
hAR
  IC50: 58 nM

## CC1CCCCC1Oc1ccc(C#N)c(C(F)(F)F)c1 (stereo not drawn) [Example 8, 4-(2-Methyl-cyclohexyloxy)-2-trifluoromethyl-benzonitrile]
hAR
  IC50: 106 nM
